In patent US12134620B2 (ARAXES PHARMA LLC, priority 2018, dated 2024):

target: T1, KRAS G12C 1-169, his-tagged protein, GDP-loaded (Homo sapiens, UniProt P01116, G12C); assay: Biochemical assay: covalent modification of KRAS G12C, analysed by mass spectrometry (RapidFire/TOF or Q-Exactive); format: binding; conditions: Modification activity, modification percentage from MS peak intensities; also: time not given here
T1 construct: KRAS G12C 1-169, his-tagged protein, GDP-loaded; His tag
How it was run: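 Covalent adduct formation was quantified by intact-protein mass spectrometry, either TOF or C4 LC-Q Exactive Plus, as percent modified versus unmodified protein after deconvolution. Compounds at 8 or 32 μM final were incubated with 0.5 or 2 μM GDP-bound KRAS G12C(1-169)-His in Hepes/NaCl/MgCl2 buffer before acid quench.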

Row | Compound | Binding %
1 | C=CC(=O)N1CC2(CCN(c3ncnc(C#Cc4c(C)ccc5[nH]ncc45)c3C#N)C2)C1 [Compound I-232, 4-(2-acryloyl-2,6-diazaspiro[3.4]octan-6-yl)-6-((5-methyl-1H-indazol-4-yl)ethynyl)pyrimidine-5-carbonitrile] | + (+ indicates binding activity greater than 0% and up to 50%)
2 | C=CC(=O)N1CC2(CCN(c3nc(OCc4ccccn4)nc(-c4c(C)ccc5cn[nH]c45)c3C#N)C2)C1 [Compound I-93, 4-(2-acryloyl-2,6-diazaspiro[3.4]octan-6-yl)-6-(6-methyl-1H-indazol-7-yl)-2-(pyridin-2-ylmethoxy)pyrimidine-5-carbonitrile] | +++ (+++ indicates binding activity greater than 85%)
3 | C=CC(=O)N1CC2(CCN(c3nc(N4CCC(N5CCN(C)[C@H](C)C5)CC4)nc(-c4c(C)ccc5cnn(C)c45)c3C#N)C2)C1 [Compound I-198, 4-(2-acryloyl-2,6-diazaspiro[3.4]octan-6-yl)-6-(1,6-dimethyl-1H-indazol-7-yl)-2-(4-((R)-3,4-dimethylpiperazin-1-yl)piperidin-1-yl)pyrimidine-5-carbonitrile] | +++ (+++ indicates binding activity greater than 85%)
4 | C=CC(=O)N1CC2(CCN(c3nc(OC[C@@H]4CCCN4C)nc(-n4cnc5ccccc54)c3C#N)C2)C1 [Compound I-38, (S)-4-(2-acryloyl-2,6-diazaspiro[3.4]octan-6-yl)-6-(1H-benzo[d]imidazol-1-yl)-2-((1-mehtylpyrrolidin-2-yl)methoxy)pyrimidine-5-carbonitrile] | + (+ indicates binding activity greater than 0% and up to 50%)
5 | C=CC(=O)N1CC2(CCN(c3nc(OC[C@@H]4CCCN4C)nc(-c4c(F)ccc5cnn(C6CC6)c45)c3C#N)C2)C1 [Compound I-124, 4-(2-acryloyl-2,6-diazaspiro[3.4]octan-6-yl)-6-(1-cyclopropyl-6-fluoro-1H-indazol-7-yl)-2-(((S)-1-methylpyrrolidin-2-yl)methoxy)pyrimidine-5-carbonitrile] | + (+ indicates binding activity greater than 0% and up to 50%)
6 | C=CC(=O)N1CC2(CCN(c3nc(OC[C@@H]4CCN(C)C4)nc(-c4c(C)ccc5[nH]ncc45)c3C#N)C2)C1 [Compound I-37, 4-(2-acryloyl-2,6-diazaspiro[3.4]octan-6-yl)-6-(5-methyl-1H-indazol-4-yl)-2-(((R)-1-methylpyrrolidin-3-yl)methoxy)pyrimidine-5-carbonitrile] | + (+ indicates binding activity greater than 0% and up to 50%)
7 | C=CC(=O)N1CC2(CCN(c3ncnc(-c4c(C)ccc5[nH]cnc45)c3C#N)C2)C1 [Compound I-250, 4-(2-acryloyl-2,6-diazaspiro[3.4]octan-6-yl)-6-(5-methyl-1H-benzo[d]imidazol-4-yl)pyrimidine-5-carbonitrile] | + (+ indicates binding activity greater than 0% and up to 50%)
8 | C=CC(=O)N1CC2(CCN(c3nc(N4CCC(N5CCN(C6CC6)CC5)CC4)nc(-c4c(C)ccc5cnn(C)c45)c3C#N)C2)C1 [Compound I-216, 4-(2-acryloyl-2,6-diazaspiro[3.4]octan-6-yl)-2-(4-(4-cyclopropylpiperazin-1-yl)piperidin-1-yl)-6-(1,6-dimethyl-1H-indazol-7-yl)pyrimidine-5-carbonitrile] | ++ (++ indicates binding activity from 50 to 85%)
9 | C=CC(=O)N1CC2(CCN(c3nc(-c4c(C)ccc5[nH]ncc45)cc(N4CC(N(C)C)C4)n3)C2)C1 [Compound I-143, 1-(6-(4-(3-(dimethylamino)azeti-din-1-yl)-6-(5-methyl-1H-indazol-4-yl)pyrimidin-2-yl)-2,6-diazaspiro[3.4]octan-2-yl)prop-2-en-1-one] | + (+ indicates binding activity greater than 0% and up to 50%)
10 | C=CC(=O)N1CC2(CCN(c3nc(N4CCOCC4)nc(-c4c(F)ccc5cnn(C)c45)c3C#N)C2)C1 [Compound I-119, 4-(2-acryloyl-2,6-diazaspiro[3.4]octan-6-yl)-6-(6-fluoro-1-methyl-1H-indazol-7-yl)-2-morpholinopyrimidine-5-carbontrile] | ++ (++ indicates binding activity from 50 to 85%)
11 | C=CC(=O)N1CC2(CCN(c3ncnc(-c4c(C)ccc5[nH]nc(N)c45)c3C#N)C2)C1 [Compound I-242, 4-(2-acryloyl-2,6-diazaspiro[3.4]octan-6-yl)-6-(3-amino-5-methyl-1H-indazol-4-yl)pyrimidine-5-carbonitrile] | ++ (++ indicates binding activity from 50 to 85%)
12 | C=CC(=O)N1CC2(CCN(c3nc(N4CCC(N5CCN(C)[C@H](C)C5)CC4)nc(-c4c(C)ccc5[nH]ncc45)c3C#N)C2)C1 [Compound I-188, 4-(2-acryloyl-2,6-diazaspiro[3.4]octan-6-yl)-2-(4-((R)-3,4-dimethylpiperazin-1-yl)piperidin-1-yl)-6-(5-methyl-1H-indazol-4-yl)pyrimidine-5-carbonitrile] | +++ (+++ indicates binding activity greater than 85%)
13 | C=CC(=O)N1CC2(CCN(c3nc(OCCN4CCCC4)nc(-c4c(C)ccc5[nH]ncc45)c3C#N)C2)C1 [Compound I-12, 4-(2-acryloyl-2,6-diazaspiro[3.4]octan-6-yl)-6-(5-methyl-1H-indazol-4-yl)-2-(2-(pyrrolidin-1-yl)ethoxy)pyrimidine-5-carbonitrile] | ++ (++ indicates binding activity from 50 to 85%)
14 | C=CC(=O)N1CC2(CCN(c3nc(NC(=O)c4ccccn4)nc(-c4c(C)ccc5[nH]ncc45)c3C#N)C2)C1 [Compound I-41, N-(4-(2-acryloyl-2,6-diazaspiro[3.4]octan-6-yl)-5-cyano-6-(5-methyl-1H-indazol-4-yl)pyrimidin-2-yl)picolinamide] | +++ (+++ indicates binding activity greater than 85%)
15 | C=CC(=O)N1CC2(CCN(c3ncnc(-c4c(C)ccc5[nH]ncc45)c3CN(C)C)C2)C1 [Compound I-258, 1-(6-(5-((dimethylamino)meth-yl)-6-(5-methyl-1H-indazol-4-yl)pyrimidin-4-yl)-2,6-diazaspiro[3.4]octan-2-yl)prop-2-en-1-one] | + (+ indicates binding activity greater than 0% and up to 50%)
16 | C=CC(=O)N1CC2(CCN(c3nc(=O)n(Cc4ccccc4)c(-c4c(C)ccc5[nH]ncc45)c3C#N)C2)C1 [Compound I-178, 4-(2-acryloyl-2,6-diazaspiro[3.4]octan-6-yl)-1-benzyl-6-(5-methyl-1H-indazol-4-yl)-2-oxo-1,2-dihydropyrimidine-5-carbonitrile] | + (+ indicates binding activity greater than 0% and up to 50%)
17 | C=CC(=O)N1CC2(CCN(c3nc(OCc4ccccn4)nc(-c4c(F)ccc5cnn(C)c45)c3C#N)C2)C1 [Compound I-123, 4-(2-acryloyl-2,6-diazaspiro[3.4]octan-6-yl)-6-(6-fluoro-1-methyl-1H-indazol-7-yl)-2-(pyridin-2-ylmethoxy)pyrimidine-5-carbonitrile] | + (+ indicates binding activity greater than 0% and up to 50%)
18 | C=CC(=O)N1CC2(CCN(c3nc(N4CCCC4)nc(-c4c(C)ccc5[nH]nc(N)c45)c3C#N)C2)C1 [Compound I-34, 4-(2-acryloyl-2,6-diazaspiro[3.4]octan-6-yl)-6-(3-amino-5-methyl-1H-indazol-4-yl)-2-(pyrrolidin-1-yl)pyrimidine-5-carbonitrile] | +++ (+++ indicates binding activity greater than 85%)
19 | C=CC(=O)N1CC2(CCN(c3nc(-c4c(C)ccc5[nH]ncc45)c(C#N)c(N4CCOCC4)n3)C2)C1 [Compound I-142, 2-(2-acryloyl-2,6-diazaspiro[3.4]octan-6-yl)-4-(5-methyl-1H-indazol-4-yl)-6-morpholinopyrimidine-5-carbonitrile] | + (+ indicates binding activity greater than 0% and up to 50%)
20 | C=CC(=O)N1CC2(CCN(c3ncnc(-c4c(C)ccc5[nH]ncc45)c3N3CCCC3)C2)C1 [Compound I-261, 1-(6-(6-(5-methyl-1H-indazol-4-yl)-5-(pyrrolidin-1-yl)pyrimidin-4-yl)-2,6-diazaspiro[3.4]octan-2-yl)prop-2-en-1-one] | + (+ indicates binding activity greater than 0% and up to 50%)
21 | C=CC(=O)N1CC2(CCN(c3nc(N4CCN(C)CC4=O)nc(-c4c(C)ccc5[nH]ncc45)c3C#N)C2)C1 [Compound I-111, 4-(2-acryloyl-2,6-diazaspiro[3.4]octan-6-yl)-6-(5-methyl-1H-indazol-4-yl)-2-(4-methyl-2-oxopiperazin-1-yl)pyrimidine-5-carbonitrile] | + (+ indicates binding activity greater than 0% and up to 50%)
22 | C=CC(=O)N1CC2(CCN(c3cnc(OCCc4ccccc4)c(-c4c(C)ccc5cnn(C)c45)c3C#N)C2)C1 [Compound I-222, 5-(2-acryloyl-2,6-diazaspiro[3.4]octan-6-yl)-3-(1,6-dimethyl-1H-indazol-7-yl)-2-phenethoxyisonicoti-nonitrile] | ++ (++ indicates binding activity from 50 to 85%)
23 | C=CC(=O)N1CC2(CCN(c3cncc(-c4c(C)ccc5[nH]ncc45)c3C#N)CC2)C1 [Compound I-263, 3-(2-acryloyl-2,7-diazaspiro[3.5]nonan-7-yl)-5-(5-methyl-1H-indazol-4-yl)isonicotinonitrile] | + (+ indicates binding activity greater than 0% and up to 50%)
24 | C=CC(=O)N1CC2(CCN(c3nc(OCc4cc(F)cc(F)c4)nc(-c4c(C)ccc5cnn(C)c45)c3C#N)C2)C1 [Compound I-165] | ++ (++ indicates binding activity from 50 to 85%)
25 | C=CC(=O)N1CC2(CCN(c3nc(N4CCC5(CC4)CN(C)C5)nc(-c4c(C)ccc5[nH]ncc45)c3C#N)C2)C1 [Compound I-112, 4-(2-acryloyl-2,6-diazaspiro[3.4]octan-6-yl)-6-(5-methyl-1H-indazol-4-yl)-2-(2-methyl-2,7-diazaspiro[3.5]nonan-7-yl)pyrimidine-5-carbonitrile] | +++ (+++ indicates binding activity greater than 85%)
